In US5912164A, “Stereoselective hydrolysis of chiral carboxylic acid esters using esterase from ophiostoma or ceratocystis” (Laboratorios Menarini S.A., priority 1993, dated 1999):
Each block holds one molecule with its values, some of them ahead of it.

Key:
[1] = system: AJ3 crude enzyme solution (esterase); assay: Hydrolysis of racemic ketoprofen esters in 2-phase biotransformations; assay type: biochemical, Ophiostoma novo-ulmi; conditions: ester 20 g/l in cyclohexane, 24 hours, 25° C.
Experimental: Various esters of racemic ketoprofen were dissolved in cyclohexane to a concentration of 20 g/l. The esters used were methyl, ethyl, n-propyl, n-butyl, n-pentyl, n-hexyl. In the case of methyl ester, a suspension was prepared due to low solubility of ester in cyclohexane.
To 5 ml aliquots of crude enzyme solution in glass vials was added 2 ml of each of the six racemic ketoprofen ester solutions above. […] Reactions were conducted with shaking for 24 hours at 25° C.

[2] = system: cloned AJ3 esterase in recombinant E. coli CS62 lysate; assay: Hydrolysis of racemic butyrate ester of 2-methoxycyclohexanol by lysate of CS62; assay type: biochemical, Ophiostoma novo-ulmi; conditions: 41 hours, 25° C., pH 8.0
Experimental: Cells (grown as per Example 7) were resuspended at 5% w/v in 100 mM TRIS, pH 8, and lysed by sonication for 15 minutes (10 seconds on, 10 seconds off cycle) at an amplitude of 20 μm in a Soniprep 150. The lysate was centrifuged to remove cell debris and the supernatant used in biotransformation.
10 g of the racemic butyrate ester of 2-methoxycyclo-hexanol was mixed with 100 ml of 100 mm TRIS, pH 8, by magnetic stirring. 20 ml of the above lysate of CS62 was added. The temperature of the biotransformation was controlled at 25° C. and the pH at 8.0 by the addition of 1M NaOH. Samples were removed and monitored for 2-methoxycyclohexanol formation. NaCl was added to saturation to 1 ml sample which was then extracted into 1 ×5 volumes of toluene. The toluene layer was removed and dried by the addition of MgSO4. The sample was then analysed by GC. A 15 m DB-5 column with 0.25 μm film was used with helium as the carrier, at 55.2 kPa, the oven temperature was 60° C. for 1 minute, raised at 10° C./min to 150° C., and this temperature was then held for a further minute.
The ee of the 2-methoxycyclohexanol formed was determined following derivatisation with trifluoroacetic anhydride (TFAA). 20 μl of TFAA was added to 1 ml of the toluene-extracted sample which was then allowed to stand at ambient temperature for 30 minutes. […]

Cells of AJ3 = assay: Whole-broth biotransformation of racemic ethyl ketoprofen by growing cells of AJ3; assay type: cell-based, Ophiostoma novo-ulmi; conditions: 20 g/l ester in broth, 120 hours
Experimental: This was shaken for 30 hours at 23° C. and then 2.5 ml transferred into a second 250 ml baffled flask containing 30 ml of the same medium as in Example 1. Following growth for 40 hours, at 23° C. with shaking, racemic ethyl ketoprofen was added to the broth to a concentration of 20 g/l.

[3] = system: esterase of AJ3 (Ophiostoma novo-ulmi), crude enzyme solution; assay: Hydrolysis of racemic ethyl naproxen in cyclohexane by crude enzyme lysate of AJ3; assay type: biochemical; conditions: 72 hours, 23° C.
Experimental: This culture was grown with shaking at 30° C. for 48 hours. 10 ml was then transferred into 90 ml fresh medium in a 1 liter shake flask and grown for a further 8 hours at 30° C. with shaking. This flask was used to inoculate a 2.8 1 laboratory fermenter with 1.5 1 medium plus 5 g/l glucose and 0.5 ml/l of a silicone/PPG-based antifoam (XF0371, Ivanhoe Chemicals, Ill., U.S.A.). This fermenter was operated for 48 hours with agitation and aeration, controlled to maintain a DOT >50% air saturation and temperature and pH at 30° C. and 6.0 respectively.
At the completion of the fermentation the cells were harvested by centrifugation and the pellet resuspended at 10% w/v (based on wet cell weight) in lysis buffer, i.e. 0.1M sodium carbonate in 5% Triton X-100 aqueous solution. Lysis was carried out overnight at 8° C. with shaking after which the enzyme activity-containing lysate was separated from the cell debris by centrifugation. The lysate was then diluted 50% in lysis buffer, prior to its being used to carry out resolution.
Racemic ethyl naproxen (ethyl 6-methoxy-α-methyl-2-naphthaleneacetate) was dissolved in cyclohexane to a concentration of 19 mg/ml. 2 ml of this solution was then mixed with 5 ml of prepared crude enzyme solution in a glass vial and reacted with shaking for 72 hours at 23° C.

[4] = system: cloned AJ3 esterase in recombinant E. coli CS62 lysate; assay: Hydrolysis of racemic ethyl naproxen by cell-free lysate of recombinant strain CS62; assay type: biochemical, Ophiostoma novo-ulmi; conditions: 1 hour, 25° C.
Experimental: Cells of CS62 grown and stored as described above were used to provide enzyme for use in the hydrolysis of ethyl naproxen. Cells were resuspended at 10% w/v in 0.1M sodium carbonate, pH 10, and lysed by sonication for 10 minutes (10 seconds on, 10 seconds off cycles) at 4° C. The enzyme lysate was then centrifuged to obtain a cell-free supernatant solution.
Racemic ethyl naproxen was dissolved in cyclohexane to a concentration of 100 g/l. 200 μl of this solution was added to 1 ml enzyme solution and shaken for 1 hour at 25° C. The phases were then separated and the aqueous phase analysed (by reverse phase HPLC) for naproxen accumulation.

[5] = Screen of 12 commercially-available lipase/esterase preparations on the butyrate ester; assay type: biochemical; conditions: racemic butyrate ester of 2-methoxycyclohexanol as substrate
Source text: The stereo-specific activity of this biocatalyst is considered unusual. […] This is potentially advantageous in that it enables access to the (S)-enantiomer as the alcohol without having to exceed 50% conversion.

Molecule: COC(=O)C(C)c1cccc(C(=O)c2ccccc2)c1 (racemic) [METHYL]
ACID PRODUCED [1]: 1.7 mg/mL
CONVERSION [1]: 42.3%
EE (%)(S)-enantiomer [1]: 90%

Molecule: CCCC(=O)OC1CCCCC1OC (racemic) [butyrate ester of 2-methoxycyclo-hexanol]
conversion of the substrate [2]: 44%
ee of the 2-methoxycyclohexanol in favour of the (S)-enantiomer [2]: 96%

Molecule: CCOC(=O)C(C)c1cccc(C(=O)c2ccccc2)c1 (racemic) [ethyl ketoprofen]
enantiomeric excess of ketoprofen acid formed, in favour of the (S)-enantiomer (Cells of AJ3): 96%
hydrolysis of the added ester (Cells of AJ3; HPLC): 18.2%

Molecule: CCOC(=O)C(C)c1ccc2cc(OC)ccc2c1 (racemic) [ethyl naproxen, ethyl 6-methoxy-α-methyl-2-naphthaleneacetate]
enantiomeric purity of naproxen, (S) enantiomer (equivalent to the ee) [3]: 96.5%
ee (enantiomeric excess) of naproxen in favour of the (S) enantiomer ([3]; HPLC): 93%
CONVERSION ([3]; cyclohexane 2-phase): about 40%
accumulation of naproxen in aqueous phase ([3]; ester 19 mg/ml in cyclohexane, 2 ml + 5 ml crude enzyme): 2.76 mg/mL
CONVERSION [4]: about 26%
ee in favour of the S-enantiomer [4]: > 95%
naproxen accumulated in aqueous phase ([4]; ester 100 g/l in cyclohexane, 200 μl + 1 ml enzyme): 5.3 g/L

ACID PRODUCED [1]: 0.3 mg/mL
CONVERSION [1]: 8.0%
Molecule: CCCCOC(=O)C(C)c1cccc(C(=O)c2ccccc2)c1 (racemic) [n-BUTYL]

ACID PRODUCED [1]: 0.09 mg/mL
CONVERSION [1]: 2.3%
Molecule: CCCCCCOC(=O)C(C)c1cccc(C(=O)c2ccccc2)c1 (racemic) [n-HEXYL]

ACID PRODUCED [1]: 0.18 mg/mL
CONVERSION [1]: 4.4%
Molecule: CCCCCOC(=O)C(C)c1cccc(C(=O)c2ccccc2)c1 (racemic) [n-PENTYL]

ACID PRODUCED [1]: 1.0 mg/mL
CONVERSION [1]: 25.6%
EE (%)(S)-enantiomer [1]: 86%
Molecule: CCCOC(=O)C(C)c1cccc(C(=O)c2ccccc2)c1 (racemic) [n-PROPYL]

stereo-specificity of hydrolysis [5]: specificity for the (R)-enantiomer
B1: porcine pancreatic lipase: commercially-available lipase/esterase preparation (protein, UniProt P00591 1-450, looked up)
Pancreatic triacylglycerol …: SEVCFPRLGCFSDDAPWAGIVQRPLKILPWSPKDVDTRFLLYTNQNQNNYQELVADPSTITNSNFRMDRKTRFIIHGFIDKGEEDWLSNICKNLFKVESVNCICVDWKGGSRTGYTQASQNIRIVGAEVAYFVEVLKSSLGYSPSNVHVIGHSLGSHAAGEAGRRTNGTIERITGLDPAEPCFQGTPELVRLDPSDAKFVDVIHTDAAPIIPNLGFGMSQTVGHLDFFPNGGKQMPGCQKNILSQIVDIDGIWEGTRDFVACNHLRSYKYYADSILNPDGFAGFPCDSYNVFTANKCFPCPSEGCPQMGHYADRFPGKTNGVSQVFYLNTGDASNFARWRYKVSVTLSGKKVTGHILVSLFGNEGNSRQYEIYKGTLQPDNTHSDEFDSDVEVGDLQKVKFIWYNNNVINPTLPRVGASKITVERNDGKVYDFCSQETVREEVLLTLNPC
